The values below come from paper PMC9503898, “Synthesis and Evaluation of Two Long-Acting SSTR2 Antagonists for Radionuclide Therapy of Neuroendocrine Tumors” (Pharmaceuticals, 2022).

Positions of bridges follow the written chain, without caps; N, C: chain ends. Non-standard residues stand in square brackets, D forms with d. Residues, ends and D or L forms follow the SMILES beside them. *: point of attachment. DOTA = O=C(O)CN1CCN(CC(=O)O)CCN(CC(=O)*)CCN(CC(=O)O)CC1; dPhe(4-NHCONH2) = NC(=O)Nc1ccc(C[C@@H](N)C(=O)O)cc1; Butanoyl(4-(4-MeO-phenyl)) = COc1ccc(CCCC(=O)*)cc1; Butanoyl(4-(4-I-phenyl)) = O=C(CCCc1ccc(I)cc1)*; Dihydroorotyl(S) = O=C1C[C@@H](C(=O)*)NC(=O)N1; Phe(4-Cl) = N[C@@H](Cc1ccc(Cl)cc1)C(=O)O; Phe(4-NH2) = Nc1ccc(C[C@H](N)C(=O)O)cc1

By IC50 is commonly meant the concentration that gives 50% inhibition. Higher therefore signals weaker potency.

The target in the assay is T1, SSTR2 receptor (U2OS-SSTR2 cells) (Homo sapiens, UniProt P30874).
T1 construct: expressed in transfected cells; host or cells: U2OS human osteosarcoma cells stably expressing SSTR2
T1 sequence (P30874 whole entry): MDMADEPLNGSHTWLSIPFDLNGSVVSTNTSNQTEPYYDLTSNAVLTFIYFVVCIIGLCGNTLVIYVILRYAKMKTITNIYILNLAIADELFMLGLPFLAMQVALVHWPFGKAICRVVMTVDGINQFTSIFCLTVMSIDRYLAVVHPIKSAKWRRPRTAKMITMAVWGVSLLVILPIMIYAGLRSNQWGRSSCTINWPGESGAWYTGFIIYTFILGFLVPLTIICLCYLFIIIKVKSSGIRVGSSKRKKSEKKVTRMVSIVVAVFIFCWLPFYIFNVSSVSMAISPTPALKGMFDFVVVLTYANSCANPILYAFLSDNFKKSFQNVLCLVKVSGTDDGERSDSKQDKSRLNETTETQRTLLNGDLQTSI
Kind of assay: Competitive binding assay against [^177Lu]Lu-JR11. To be noted: radioligand [^177Lu]Lu-JR11 10^−9 M, unlabeled compound 10^−12 to 10^−5 M, 90 min, 37 °C, triplicate. The procedure:
Human osteosarcoma cells (U2OS) stably expressing the SSTR2 receptor were used in all in vitro cell assays. Cells were cultured in Dulbecco’s modified Eagle’s medium (DMEM) from Gibco (Paisley, UK) supplemented with 2 mM L-glutamine, 10% fetal bovine serum (FBS), 50 units/mL penicillin, and 50 μg/mL streptomycin (Sigma Aldrich; Haarlerbergweg, The Netherlands) and maintained at 37 °C and in a 5% CO2 humidified chamber. Passages were performed weekly using trypsin/EDTA (0.05%/0.02% w/v).
Competitive binding experiments against [^177Lu]Lu-JR11 were performed with 8a and 8b in U2OS-SSTR2 cells. Cells were seeded in a 24-well plate 24 h in advance (2 × 10^5 cells/well). On the day of the experiment, medium was removed, and the cells were washed once with PBS (Gibco). Then, solutions containing unlabeled compound 8a or 8b in increasing concentrations (10^−12 to 10^−5 M) in internalization medium (DMEM media, 20 mM HEPES, 1% BSA, pH 7.4) were added, followed by the addition of [^177Lu]Lu-JR11 (10^−9 M). For each concentration, experiments were performed in triplicate. Cells were incubated at 37 °C for 90 min. After incubation, medium was removed, and cells were washed once with PBS and lysed with 0.5 M sodium hydroxide (NaOH) for 10 min at rt. The lysate was transferred to counting tubes, and measurement was performed using the γ-counter.
The molecule `COc1ccc(CCCC(=O)NCCCC[C@H](NC(=O)CN2CCN(CC(=O)O)CCN(CC(=O)O)CCN(CC(=O)O)CC2)C(=O)N[C@@H](Cc2ccc(Cl)cc2)C(=O)N[C@@H]2CSSC[C@@H](C(=O)N[C@H](Cc3ccc(O)cc3)C(N)=O)NC(=O)[C@H]([C@@H](C)O)NC(=O)[C@H](CCCCN)NC(=O)[C@@H](Cc3ccc(NC(N)=O)cc3)NC(=O)[C@H](Cc3ccc(NC(=O)[C@@H]4CC(=O)NC(=O)N4)cc3)NC2=O)cc1` [8b, DOTA-Lys(4-(p-methoxyphenyl)butyryl)-Phe(4-Cl)-c[D-Cys-Aph(Hor)-D-Aph(Cbm)-Lys-Thr-Cys]-D-Tyr-NH2] ({DOTA}-K(Butanoyl(4-(4-MeO-phenyl)))[Phe(4-Cl)][dC][Phe(4-NH2)](Dihydroorotyl(S))[dPhe(4-NHCONH2)]KTC[dY]-NH2; disulfide 3-8) came in with an IC50 of 0.13 ± 0.0003 µM.

`C[C@@H](O)[C@@H]1NC(=O)[C@H](CCCCN)NC(=O)[C@@H](Cc2ccc(NC(N)=O)cc2)NC(=O)[C@H](Cc2ccc(NC(=O)[C@@H]3CC(=O)NC(=O)N3)cc2)NC(=O)[C@H](NC(=O)[C@H](Cc2ccc(Cl)cc2)NC(=O)[C@H](CCCCNC(=O)CCCc2ccc(I)cc2)NC(=O)CN2CCN(CC(=O)O)CCN(CC(=O)O)CCN(CC(=O)O)CC2)CSSC[C@@H](C(=O)N[C@H](Cc2ccc(O)cc2)C(N)=O)NC1=O` [8a, DOTA-Lys(4-(p-iodophenyl)butyryl)-Phe(4-Cl)-c[D-Cys-Aph(Hor)-D-Aph(Cbm)-Lys-Thr-Cys]-D-Tyr-NH2] ({DOTA}-K(Butanoyl(4-(4-I-phenyl)))[Phe(4-Cl)][dC][Phe(4-NH2)](Dihydroorotyl(S))[dPhe(4-NHCONH2)]KTC[dY]-NH2; disulfide 3-8) came in with an IC50 of 0.08 ± 0.00043 µM.

For the molecule `C[C@@H](O)[C@@H]1NC(=O)[C@H](CCCCN)NC(=O)[C@@H](Cc2ccc(NC(N)=O)cc2)NC(=O)[C@H](Cc2ccc(NC(=O)[C@@H]3CC(=O)NC(=O)N3)cc2)NC(=O)[C@H](NC(=O)[C@H](Cc2ccc(Cl)cc2)NC(=O)CN2CCN(CC(=O)O)CCN(CC(=O)O)CCN(CC(=O)O)CC2)CSSC[C@@H](C(=O)N[C@H](Cc2ccc(O)cc2)C(N)=O)NC1=O` [JR11, reference compound] ({DOTA}-[Phe(4-Cl)][dC][Phe(4-NH2)](Dihydroorotyl(S))[dPhe(4-NHCONH2)]KTC[dY]-NH2; disulfide 2-7), the IC50 was 0.0027 ± 0.00026 µM.
